Values quoted from earlier work, collected in patent US6511968B1, “Combination therapy for treating, preventing, or reducing the risks associated with acute coronary ischemic syndrome and related conditions” (Merck & Co., Inc., priority 1998, dated 2003).
Structures can show the parent of a compound that is named as a salt. Each block holds one molecule with its values, some of them ahead of it. Where a SMILES comes first, the peptide text is derived from it. Bridges are numbered along the chain shown (N, C = ends). [ ]: non-standard residue; d: D form. hArg = N=C(N)NCCCC[C@H](N)C(=O)O; Mpa = O=C(O)CCS

Key:
αvβ3 = αvβ3 (Homo sapiens, UniProt P05106+P06756)
Sequence of αvβ3 (P06756 31-889 limits assumed): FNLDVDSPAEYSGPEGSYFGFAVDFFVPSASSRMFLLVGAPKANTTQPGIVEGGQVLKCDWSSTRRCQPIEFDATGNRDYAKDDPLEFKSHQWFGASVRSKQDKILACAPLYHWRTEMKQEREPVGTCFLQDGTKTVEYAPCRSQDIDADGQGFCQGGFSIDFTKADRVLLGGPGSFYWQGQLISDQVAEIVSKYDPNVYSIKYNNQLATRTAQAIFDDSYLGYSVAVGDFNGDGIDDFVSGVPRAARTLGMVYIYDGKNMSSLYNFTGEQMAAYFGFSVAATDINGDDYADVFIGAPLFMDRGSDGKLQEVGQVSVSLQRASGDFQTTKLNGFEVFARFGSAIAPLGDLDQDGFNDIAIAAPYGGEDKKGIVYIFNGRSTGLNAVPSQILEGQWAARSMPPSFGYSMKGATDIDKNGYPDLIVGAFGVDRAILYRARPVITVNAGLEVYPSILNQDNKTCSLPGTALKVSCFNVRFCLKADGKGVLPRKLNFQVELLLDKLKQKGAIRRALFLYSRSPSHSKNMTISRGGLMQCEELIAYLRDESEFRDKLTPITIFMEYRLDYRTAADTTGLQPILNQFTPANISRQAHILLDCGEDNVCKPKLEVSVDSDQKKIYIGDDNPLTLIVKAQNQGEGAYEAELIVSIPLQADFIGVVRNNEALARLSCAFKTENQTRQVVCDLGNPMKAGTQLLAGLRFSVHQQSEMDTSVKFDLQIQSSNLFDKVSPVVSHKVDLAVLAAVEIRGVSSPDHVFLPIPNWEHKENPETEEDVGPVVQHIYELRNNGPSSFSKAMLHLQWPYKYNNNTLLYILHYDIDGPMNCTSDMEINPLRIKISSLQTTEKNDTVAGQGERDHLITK
Sequence of αvβ3 (P06756 891-1048 partner limits assumed): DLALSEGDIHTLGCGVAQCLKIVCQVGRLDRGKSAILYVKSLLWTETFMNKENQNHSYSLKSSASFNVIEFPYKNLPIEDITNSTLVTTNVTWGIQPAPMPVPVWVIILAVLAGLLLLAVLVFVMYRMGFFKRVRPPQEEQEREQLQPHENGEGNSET
Sequence of αvβ3 (P05106 27-788): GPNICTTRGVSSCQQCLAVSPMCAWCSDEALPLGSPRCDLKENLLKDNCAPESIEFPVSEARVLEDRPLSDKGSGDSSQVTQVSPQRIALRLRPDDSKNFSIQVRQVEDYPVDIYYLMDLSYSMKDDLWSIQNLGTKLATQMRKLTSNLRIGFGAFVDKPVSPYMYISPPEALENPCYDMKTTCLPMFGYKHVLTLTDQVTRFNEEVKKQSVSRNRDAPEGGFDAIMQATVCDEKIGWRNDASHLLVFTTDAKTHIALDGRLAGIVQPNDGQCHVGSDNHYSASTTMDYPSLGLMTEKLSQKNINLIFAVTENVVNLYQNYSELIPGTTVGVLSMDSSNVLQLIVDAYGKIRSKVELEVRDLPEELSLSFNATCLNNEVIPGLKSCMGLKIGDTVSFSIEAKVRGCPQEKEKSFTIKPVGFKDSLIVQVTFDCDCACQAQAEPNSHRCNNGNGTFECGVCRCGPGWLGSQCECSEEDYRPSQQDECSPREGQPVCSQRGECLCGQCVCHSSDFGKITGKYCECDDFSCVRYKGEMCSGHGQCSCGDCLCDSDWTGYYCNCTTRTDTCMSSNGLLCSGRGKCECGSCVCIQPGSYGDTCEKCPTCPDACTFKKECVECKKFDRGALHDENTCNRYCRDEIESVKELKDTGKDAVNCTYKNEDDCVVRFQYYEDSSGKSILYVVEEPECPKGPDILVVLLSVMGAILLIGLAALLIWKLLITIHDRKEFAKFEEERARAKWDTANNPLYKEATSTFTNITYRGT

GP IIb/IIIa = GP IIb/IIIa (Homo sapiens, UniProt P05106+P08514); details: for selectivity for GPIIb/IIIa: administered intravenously
Sequence of GP IIb/IIIa (P08514 32-887 limits assumed): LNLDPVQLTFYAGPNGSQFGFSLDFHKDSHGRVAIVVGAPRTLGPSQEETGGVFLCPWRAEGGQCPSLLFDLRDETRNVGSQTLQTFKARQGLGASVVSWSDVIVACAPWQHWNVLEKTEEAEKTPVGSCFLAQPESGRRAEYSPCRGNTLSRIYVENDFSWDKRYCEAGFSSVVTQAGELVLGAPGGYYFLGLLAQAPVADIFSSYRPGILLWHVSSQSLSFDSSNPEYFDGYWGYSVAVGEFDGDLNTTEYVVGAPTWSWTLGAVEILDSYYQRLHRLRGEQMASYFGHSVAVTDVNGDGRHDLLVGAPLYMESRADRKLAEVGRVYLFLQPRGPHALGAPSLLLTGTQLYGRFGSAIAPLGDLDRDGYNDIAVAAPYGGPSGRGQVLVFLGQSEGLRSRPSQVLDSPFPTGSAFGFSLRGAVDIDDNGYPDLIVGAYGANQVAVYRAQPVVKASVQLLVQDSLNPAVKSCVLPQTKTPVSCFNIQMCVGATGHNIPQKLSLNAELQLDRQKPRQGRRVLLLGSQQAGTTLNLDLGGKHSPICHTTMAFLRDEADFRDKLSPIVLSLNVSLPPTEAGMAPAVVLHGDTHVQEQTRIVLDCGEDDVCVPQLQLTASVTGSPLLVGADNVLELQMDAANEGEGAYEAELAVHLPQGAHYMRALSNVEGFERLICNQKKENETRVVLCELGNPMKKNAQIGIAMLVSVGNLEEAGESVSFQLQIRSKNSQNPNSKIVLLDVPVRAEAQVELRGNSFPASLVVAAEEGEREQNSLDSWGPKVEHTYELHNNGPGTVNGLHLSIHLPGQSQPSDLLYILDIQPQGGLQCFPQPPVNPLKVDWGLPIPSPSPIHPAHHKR
Sequence of GP IIb/IIIa (P08514 891-1039 partner limits assumed): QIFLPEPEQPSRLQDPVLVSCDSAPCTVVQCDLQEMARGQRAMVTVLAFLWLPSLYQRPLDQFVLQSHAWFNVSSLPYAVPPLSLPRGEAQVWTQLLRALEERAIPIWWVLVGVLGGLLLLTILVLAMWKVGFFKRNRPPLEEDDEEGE
Sequence of GP IIb/IIIa (P05106 27-788): as the sequence (P05106 27-788) above

[1] = prodrug
platelet aggregation = details: increasing concentrations added to platelet-rich plasma in vitro or incremental doses in vivo

Molecule: N=C(N)NCCCC[C@@H]1NC(=O)CCSSC[C@@H](C(N)=O)NC(=O)[C@@H]2CCCN2C(=O)[C@H](Cc2c[nH]c3ccccc23)NC(=O)[C@H](CC(=O)O)NC(=O)CNC1=O [Integrelin] ([Mpa][hArg]GDWPC-NH2; disulfide 1-7)
effect on ligand binding to αvβ3 / receptor blockade (αvβ3): very little effect | inhibition of ligand binding to GP IIb/IIIa / receptor blockade (GP IIb/IIIa): inhibits ligand binding to GP IIb/IIIa

selectivity for GPIIb/IIIa (GP IIb/IIIa): selective for GPIIb/IIIa
Molecule: CCCCS(=O)(=O)N[C@@H](Cc1ccc(OCCCCC2CCNCC2)cc1)C(=O)O [MK-383, 2-S-(n-Butylsulfonylamino)-3[4-piperidin-4-yl)butyloxyphenyl]propionic acid hydrochloride]

selectivity for GPIIb/IIIa (GP IIb/IIIa): selective for GPIIb/IIIa
Molecule: N=C(N)c1ccc(C(=O)N[C@@H](Cc2ccc(O)cc2)C(=O)N2CCC(OCC(=O)O)CC2)cc1 [Ro 44-9883]

oral bioavailability [1]: high oral bioavailability
Molecule: C#C[C@H](CC(=O)OCC)NC(=O)CCC(=O)Nc1ccc(C(=N)N)cc1 [SC54684, ethyl 3-[[4-[[4-(aminoiminomethyl)phenyl]amino]-1,4-dioxobutyl]amino]-4-pentynoate]

B1: c7E3 Fab: c7E3 Fab form of the 7E3 antibody (antibody, chains of the INN, looked up, V domains shown)
VH: EVQLQQSGTVLARPGASVKMSCEASGYTFTNYWMHWVKQRPGQGLEWIGAIYPGNSDTSYIQKFKGKAKLTAVTSTTSVYMELSSLTNEDSAVYYCTLYDGYYVFAYWGQGTLVTVSA
VL: EIVLTQSPVTLSVTPGDSVSLSCRASRDISNNLHWFQQTSHESPRLLIKYASQSMSGIPSRFSGSGSGTDFTLSINSVETEDFGMYFCQQTNSWPYTFGGGTKLEIK
modifications: Fab
notes: c7E3 Fab form of the 7E3 antibody
platelet aggregation (platelet aggregation): profoundly inhibited
